Assay results: ChEMBL document CHEMBL2434920, “Synthesis, characterization and in vitro biological evaluation of some novel 1,3,5-triazine-Schiff base conjugates as potential antimycobacterial agents” (Bioorg Med Chem Lett, 2013)
Converted amounts (≈) assume the structure as drawn.

Columns and labels:
[1] = system: Mycobacterium tuberculosis; experiment: Antimycobacterial activity against Mycobacterium tuberculosis H37Rv assessed as growth inhibition after 5 days by microplate Alamar Blue assay; type: functional; conditions: 120 h
Vero = experiment: Cytotoxicity against African green monkey Vero cells assessed as cell viability after 72 hrs by MTT assay; type: cell-based; conditions: Chlorocebus sabaeus

| SMILES | MIC [1] [µg/mL] | IC50 (Vero) [µg/mL] |
| --- | --- | --- |
| COc1nc(C)nc(/N=C(\C)c2ccccc2O)n1 | 25 (≈ 96.8 µM) | > 50 |
| COc1nc(C)nc(/N=C(\C)c2ccc(O)cc2)n1 | 25 (≈ 96.8 µM) | > 50 |
| COc1nc(C)nc(/N=C(\C)c2ccc(O)cc2O)n1 | 25 (≈ 91.1 µM) | > 50 |
| COc1nc(C)nc(/N=C(\C)c2cc(O)ccc2O)n1 | 6.25 (≈ 22.8 µM) | > 50 |
| COc1nc(C)nc(/N=C(\C)c2cc(C)ccc2O)n1 | 50 (≈ 184 µM) | – |
| COc1nc(C)nc(/N=C(\C)c2cccc(C)c2O)n1 | 50 (≈ 184 µM) | – |
| COc1nc(C)nc(/N=C(\C)c2cccc([N+](=O)[O-])c2)n1 | 25 (≈ 87 µM) | > 50 |
| COc1nc(C)nc(/N=C(\C)c2ccc([N+](=O)[O-])cc2)n1 | 12.5 (≈ 43.5 µM) | > 50 |
| COc1nc(C)nc(/N=C(\C)c2cccs2)n1 | 25 (≈ 101 µM) | > 50 |
| COc1nc(C)nc(/N=C(\C)c2cccnc2)n1 | 50 (≈ 206 µM) | – |
| COc1nc(C)nc(/N=C(\C)c2ccc3ccccc3c2)n1 | 50 (≈ 171 µM) | – |
| COc1nc(C)nc(/N=C(\C)c2ccc3c(c2)Cc2ccccc2-3)n1 | 50 (≈ 151 µM) | – |
| COc1nc(C)nc(/N=C/c2ccc(C)cc2)n1 | 25 (≈ 103 µM) | > 50 |
| COc1nc(C)nc(/N=C/c2ccc(N(C)C)cc2)n1 | 25 (≈ 92.1 µM) | > 50 |
| COc1nc(C)nc(/N=C/c2cc(OC)c(OC)c(OC)c2)n1 | 3.12 (≈ 9.82 µM) | > 50 |
| CCOc1cc(/C=N/c2nc(C)nc(OC)n2)ccc1O | 25 (≈ 86.7 µM) | > 50 |
| COc1nc(C)nc(/N=C/c2cccc([N+](=O)[O-])c2)n1 | 50 (≈ 183 µM) | – |
| COc1nc(C)nc(/N=C/c2ccc(Cl)cc2)n1 | 12.5 (≈ 47.6 µM) | > 50 |

| SMILES | MIC [1] [µg/mL] | IC50 (Vero) [µg/mL] |
| --- | --- | --- |
| COc1nc(C)nc(/N=C/c2ccc(Cl)cc2Cl)n1 | 12.5 (≈ 42.1 µM) | > 50 |
| COc1nc(C)nc(/N=C/c2cccc(Br)c2)n1 | 12.5 (≈ 40.7 µM) | > 50 |
| COc1nc(C)nc(/N=C/c2ccc(Br)cc2)n1 | 25 (≈ 81.4 µM) | > 50 |
| COc1nc(C)nc(/N=C/c2cc(Cl)cc(Br)c2O)n1 | 6.25 (≈ 17.5 µM) | > 50 |
| C=CCOc1ccc(/C=N/c2nc(C)nc(OC)n2)cc1 | 25 (≈ 87.9 µM) | > 50 |
| COc1nc(C)nc(/N=C/c2ccc[nH]2)n1 | 25 (≈ 115 µM) | > 50 |
| COc1nc(C)nc(/N=C/c2cccnc2)n1 | 50 (≈ 218 µM) | – |
| COc1nc(C)nc(/N=C/c2c[nH]c3ccccc23)n1 | 50 (≈ 187 µM) | – |
| COc1nc(C)nc(/N=C/c2c3ccccc3cc3ccccc23)n1 | 50 (≈ 152 µM) | – |
| COc1nc(C)nc(/N=C(\C)c2ccccc2)n1 | 50 (≈ 206 µM) | – |
| COc1nc(C)nc(/N=C(\C)c2ccc(C)cc2)n1 | 12.5 (≈ 48.8 µM) | > 50 |
| COc1cccc(/C(C)=N/c2nc(C)nc(OC)n2)c1 | 12.5 (≈ 45.9 µM) | > 50 |
| COc1ccc(/C(C)=N/c2nc(C)nc(OC)n2)cc1 | 50 (≈ 184 µM) | – |
| COc1nc(C)nc(/N=C/c2ccccc2)n1 | 50 (≈ 219 µM) | – |
| CC[C@@H](CO)NCCN[C@@H](CC)CO [ETHAMBUTOL] | 3.12 (≈ 15.3 µM) | > 50 |
| NC(=O)c1cnccn1 [PYRAZINAMIDE] | 3.12 (≈ 25.4 µM) | > 50 |
| CN[C@@H]1[C@H](O[C@H]2[C@H](O[C@H]3[C@H](O)[C@@H](O)[C@H](N=C(N)N)[C@@H](O)[C@@H]3N=C(N)N)O[C@@H](C)[C@]2(O)C=O)O[C@@H](CO)[C@H](O)[C@H]1O [STREPTOMYCIN] | 6.25 (≈ 10.7 µM) | > 50 |
